According to ChEMBL document CHEMBL1201862, “PubChem BioAssay data set” (2004):
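Method: 48-hour compound exposure of cells in 96-well plates, five concentrations, linear interpolation of endpoints. Here, GI50 denotes the concentration required for 50% inhibition of growth.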 The source made the active and inactive calls. Cut-off read from the data, not from the text of the source: active = GI50 up to about 1.1 µM and inactive = higher.

Experiments:
Experiment in all cases: NCI anticancer screen, dose series, 48 h
KM12 = test system: KM12
Malme-3M = test system: Malme-3M
BT-549 = test system: BT-549
SNB-75 = test system: SNB-75
SK-OV-3 = test system: SK-OV-3
SF-539 = test system: SF-539
M14 = test system: M14
UACC-257 = test system: UACC-257
786-0 = test system: 786-0
MOLT-4 = test system: MOLT-4
MDA-N = test system: MDA-N
HCT-15 = test system: HCT-15
OVCAR-5 = test system: OVCAR-5
RXF 393 = test system: RXF 393
NCI-H522 = test system: NCI-H522
PC-3 = test system: PC-3
NCI-H460 = test system: NCI-H460
HT-29 = test system: HT-29
K562 = test system: K562
OVCAR-8 = test system: OVCAR-8
SF-295 = test system: SF-295
CCRF-CEM = test system: CCRF-CEM
TK-10 = test system: TK-10
MDA-MB-231 = test system: MDA-MB-231
OVCAR-4 = test system: OVCAR-4
MCF7 = test system: MCF7
IGROV-1 = test system: IGROV-1
SF-268 = test system: SF-268
CAKI-1 = test system: CAKI-1
SNB-19 = test system: SNB-19
SK-MEL-28 = test system: SK-MEL-28
COLO 205 = test system: COLO 205
HOP-92 = test system: HOP-92
RPMI-8226 = test system: RPMI-8226
A549 = test system: A549
NCI/ADR-RES = test system: NCI/ADR-RES
HOP-62 = test system: HOP-62
DU-145 = test system: DU-145
MDA-MB-435 = test system: MDA-MB-435
UACC-62 = test system: UACC-62
LOX IMVI = test system: LOX IMVI
HCT-116 = test system: HCT-116
SN12C = test system: SN12C
U-251 = test system: U-251
OVCAR-3 = test system: OVCAR-3
EKVX = test system: EKVX
SW-620 = test system: SW-620
HL-60 = test system: HL-60
SK-MEL-2 = test system: SK-MEL-2
UO-31 = test system: UO-31
SR = test system: SR
HCC 2998 = test system: HCC 2998
SK-MEL-5 = test system: SK-MEL-5
NCI-H226 = test system: NCI-H226
NCI-H23 = test system: NCI-H23
T47D = test system: T47D
Hs-578T = test system: Hs-578T
ACHN = test system: ACHN

For `Cc1ccc(Nc2nc3ccccc3c(=O)n2N)cc1`, the GI50 (KM12) was > 100 µM (inactive), the GI50 (Malme-3M) was > 100 µM (inactive) and the GI50 (BT-549) was > 100 µM (inactive). For the same molecule, the GI50 (SNB-75) was 75 µM (inactive), the GI50 (SK-OV-3) was > 100 µM (inactive) and the GI50 (SF-539) was > 100 µM (inactive). For the same molecule, the GI50 (M14) was > 100 µM (inactive), the GI50 (UACC-257) was > 100 µM (inactive) and the GI50 (786-0) was > 100 µM (inactive). For the same molecule, the GI50 (MOLT-4) was > 100 µM (inactive), the GI50 (MDA-N) was > 100 µM (inactive) and the GI50 (HCT-15) was > 100 µM. For the same molecule, the GI50 (OVCAR-5) was > 100 µM (inactive), the GI50 (RXF 393) was > 100 µM (inactive) and the GI50 (NCI-H522) was > 100 µM (inactive). For the same molecule, the GI50 (PC-3) was > 100 µM (inactive), the GI50 (NCI-H460) was > 100 µM (inactive) and the GI50 (HT-29) was 78.2 µM (inactive). The GI50 (K562) was > 100 µM (inactive), the GI50 (OVCAR-8) was > 100 µM (inactive) and the GI50 (SF-295) was > 100 µM (inactive). The GI50 (CCRF-CEM) was > 100 µM (inactive), the GI50 (TK-10) was > 100 µM (inactive) and the GI50 (MDA-MB-231) was > 100 µM (inactive). The GI50 (OVCAR-4) was > 100 µM (inactive), the GI50 (MCF7) was > 100 µM (inactive) and the GI50 (IGROV-1) was 88.3 µM (inactive). For the same molecule, the GI50 (SF-268) was > 100 µM (inactive), the GI50 (CAKI-1) was > 100 µM (inactive) and the GI50 (SNB-19) was > 100 µM (inactive). The GI50 (SK-MEL-28) was > 100 µM (inactive), the GI50 (COLO 205) was > 100 µM (inactive) and the GI50 (HOP-92) was > 100 µM (inactive). For the same molecule, the GI50 (RPMI-8226) was > 100 µM (inactive), the GI50 (A549) was > 100 µM (inactive) and the GI50 (NCI/ADR-RES) was > 100 µM (inactive). For the same molecule, the GI50 (HOP-62) was > 100 µM (inactive), the GI50 (DU-145) was > 100 µM (inactive) and the GI50 (MDA-MB-435) was > 100 µM (inactive). For the same molecule, the GI50 (UACC-62) was > 100 µM (inactive), the GI50 (LOX IMVI) was > 100 µM (inactive) and the GI50 (HCT-116) was > 100 µM (inactive). The GI50 (SN12C) was > 100 µM (inactive), the GI50 (U-251) was > 100 µM (inactive) and the GI50 (OVCAR-3) was > 100 µM (inactive). For the same molecule, the GI50 (EKVX) was > 100 µM (inactive), the GI50 (SW-620) was > 100 µM (inactive) and the GI50 (HL-60) was > 100 µM (inactive). The GI50 (SK-MEL-2) was > 100 µM (inactive), the GI50 (UO-31) was > 100 µM (inactive) and the GI50 (SR) was > 100 µM (inactive). The GI50 (HCC 2998) was > 100 µM (inactive), the GI50 (SK-MEL-5) was > 100 µM (inactive) and the GI50 (NCI-H226) was > 100 µM (inactive). The GI50 (NCI-H23) was > 100 µM (inactive), the GI50 (T47D) was > 100 µM (inactive) and the GI50 (Hs-578T) was > 100 µM (inactive). The GI50 (ACHN) was > 100 µM (inactive).

`CN(C)CCCNC(=O)c1cc(NC(=O)c2cc(NC(=O)c3cc(NC(=O)CCCn4ccc(CO)c4CO)cn3C)cn2C)cn1C` was tested, and the GI50 (KM12) was > 100 µM (inactive), the GI50 (Malme-3M) was 14.5 µM (inactive) and the GI50 (BT-549) was 2.64 µM (inactive). The GI50 (SNB-75) was 5.01 µM (inactive), the GI50 (SK-OV-3) was 1.06 µM (active) and the GI50 (SF-539) was 3.44 µM (inactive). The GI50 (786-0) was 4.2 µM (inactive), the GI50 (MOLT-4) was 4.74 µM (inactive) and the GI50 (MDA-N) was 16.5 µM (inactive). For the same molecule, the GI50 (HCT-15) was > 100 µM, the GI50 (OVCAR-5) was 3.99 µM (inactive) and the GI50 (RXF 393) was 1.85 µM (inactive). For the same molecule, the GI50 (NCI-H522) was 2.37 µM (inactive), the GI50 (PC-3) was 12.2 µM (inactive) and the GI50 (NCI-H460) was 12.5 µM (inactive). The GI50 (K562) was 3.78 µM (inactive), the GI50 (CCRF-CEM) was 3.73 µM (inactive) and the GI50 (TK-10) was 24.8 µM (inactive). For the same molecule, the GI50 (MDA-MB-231) was 27.7 µM (inactive), the GI50 (OVCAR-4) was 19.5 µM (inactive) and the GI50 (MCF7) was 3.27 µM (inactive). For the same molecule, the GI50 (IGROV-1) was 3.2 µM (inactive), the GI50 (SF-268) was 3.83 µM (inactive) and the GI50 (CAKI-1) was > 100 µM (inactive). The GI50 (SNB-19) was 2.9 µM (inactive), the GI50 (SK-MEL-28) was 11.4 µM (inactive) and the GI50 (COLO 205) was 11.2 µM (inactive). The GI50 (HOP-92) was 13 µM (inactive), the GI50 (A549) was 14.5 µM (inactive) and the GI50 (NCI/ADR-RES) was > 100 µM (inactive). The GI50 (DU-145) was 3.94 µM (inactive), the GI50 (MDA-MB-435) was 11.1 µM (inactive) and the GI50 (UACC-62) was 3.48 µM (inactive). The GI50 (LOX IMVI) was 4.28 µM (inactive), the GI50 (HCT-116) was 3.86 µM (inactive) and the GI50 (SN12C) was 6.18 µM (inactive). For the same molecule, the GI50 (U-251) was 2.77 µM (inactive), the GI50 (OVCAR-3) was 10.9 µM (inactive) and the GI50 (EKVX) was 72.4 µM (inactive). The GI50 (SW-620) was 20.6 µM (inactive), the GI50 (HL-60) was 3.1 µM (inactive) and the GI50 (SK-MEL-2) was 25.6 µM (inactive). The GI50 (UO-31) was > 100 µM (inactive), the GI50 (SR) was 6.5 µM (inactive) and the GI50 (HCC 2998) was 63.5 µM (inactive). For the same molecule, the GI50 (SK-MEL-5) was 2.71 µM (inactive), the GI50 (NCI-H226) was 2.97 µM (inactive) and the GI50 (NCI-H23) was 13.8 µM (inactive). The GI50 (T47D) was 6.85 µM (inactive), the GI50 (Hs-578T) was 22.1 µM (inactive) and the GI50 (ACHN) was 15.8 µM (inactive).

In the case of `CC1(c2nc3cc(Cl)c(Cl)cc3[nH]2)CCC(C(=O)O)C(C)(C)O1` (stereo unspecified), the GI50 (KM12) is reported as > 100 µM (inactive), the GI50 (Malme-3M) is reported as > 100 µM (inactive) and the GI50 (BT-549) is reported as > 100 µM (inactive). For the same molecule, the GI50 (SNB-75) was > 100 µM (inactive), the GI50 (SK-OV-3) was > 100 µM (inactive) and the GI50 (SF-539) was > 100 µM (inactive). The GI50 (M14) was > 100 µM (inactive), the GI50 (UACC-257) was > 100 µM (inactive) and the GI50 (786-0) was > 100 µM (inactive). The GI50 (MOLT-4) was > 100 µM (inactive), the GI50 (MDA-N) was > 100 µM (inactive) and the GI50 (HCT-15) was > 100 µM. The GI50 (OVCAR-5) was > 100 µM (inactive), the GI50 (RXF 393) was > 100 µM (inactive) and the GI50 (NCI-H522) was > 100 µM (inactive). For the same molecule, the GI50 (PC-3) was > 100 µM (inactive), the GI50 (HT-29) was > 100 µM (inactive) and the GI50 (K562) was > 100 µM (inactive). The GI50 (OVCAR-8) was > 100 µM (inactive), the GI50 (SF-295) was > 100 µM (inactive) and the GI50 (CCRF-CEM) was > 100 µM (inactive). The GI50 (TK-10) was > 100 µM (inactive), the GI50 (MDA-MB-231) was > 100 µM (inactive) and the GI50 (OVCAR-4) was 78.9 µM (inactive). For the same molecule, the GI50 (MCF7) was > 100 µM (inactive), the GI50 (IGROV-1) was > 100 µM (inactive) and the GI50 (SF-268) was > 100 µM (inactive). The GI50 (CAKI-1) was > 100 µM (inactive), the GI50 (SNB-19) was > 100 µM (inactive) and the GI50 (SK-MEL-28) was > 100 µM (inactive). The GI50 (COLO 205) was > 100 µM (inactive), the GI50 (HOP-92) was > 100 µM (inactive) and the GI50 (RPMI-8226) was > 100 µM (inactive). For the same molecule, the GI50 (A549) was > 100 µM (inactive), the GI50 (NCI/ADR-RES) was > 100 µM (inactive) and the GI50 (HOP-62) was > 100 µM (inactive). The GI50 (DU-145) was > 100 µM (inactive), the GI50 (MDA-MB-435) was > 100 µM (inactive) and the GI50 (UACC-62) was > 100 µM (inactive). For the same molecule, the GI50 (LOX IMVI) was > 100 µM (inactive), the GI50 (HCT-116) was > 100 µM (inactive) and the GI50 (SN12C) was > 100 µM (inactive). The GI50 (U-251) was > 100 µM (inactive), the GI50 (OVCAR-3) was > 100 µM (inactive) and the GI50 (EKVX) was > 100 µM (inactive). The GI50 (SW-620) was > 100 µM (inactive), the GI50 (HL-60) was > 100 µM (inactive) and the GI50 (SK-MEL-2) was > 100 µM (inactive). For the same molecule, the GI50 (UO-31) was 34.8 µM (inactive), the GI50 (SR) was > 100 µM (inactive) and the GI50 (HCC 2998) was > 100 µM (inactive). The GI50 (SK-MEL-5) was > 100 µM (inactive), the GI50 (NCI-H226) was > 100 µM (inactive) and the GI50 (NCI-H23) was > 100 µM (inactive). The GI50 (T47D) was > 100 µM (inactive), the GI50 (Hs-578T) was > 100 µM (inactive) and the GI50 (ACHN) was > 100 µM (inactive).
